Several values for one entry are separate records, joined by “and”; a condition that tells them apart may be missing. Equal entries are not always repeated. Where two headings read alike, the source gives them in different places.
Assays:
[1] = test system: 68 discrete GPCRs, ion channels and transporters; assay type: binding; settings: 10 μM
SARS-CoV 3CLpro = SARS-CoV 3CLpro (Severe acute respiratory syndrome coronavirus, UniProt P0C6X7); assay: biochemical; assay type: biochemical; settings: for inhibition at 100 µM: read-out: 3CLpro inhibition level
SARS-CoV = settings: cited from earlier work
SARS 3CLpro = settings: cited from earlier work
[2] = test system: SARS-CoV infected Vero cells; settings: cited from earlier work
[3] = biological target: T1, 3CLpro enzyme from the mouse coronavirus MHV (Murine coronavirus, UniProt P0C6X9); assay type: biochemical; settings: 100 μM
T1 sequence (P0C6X9 3334-3635 limits assumed): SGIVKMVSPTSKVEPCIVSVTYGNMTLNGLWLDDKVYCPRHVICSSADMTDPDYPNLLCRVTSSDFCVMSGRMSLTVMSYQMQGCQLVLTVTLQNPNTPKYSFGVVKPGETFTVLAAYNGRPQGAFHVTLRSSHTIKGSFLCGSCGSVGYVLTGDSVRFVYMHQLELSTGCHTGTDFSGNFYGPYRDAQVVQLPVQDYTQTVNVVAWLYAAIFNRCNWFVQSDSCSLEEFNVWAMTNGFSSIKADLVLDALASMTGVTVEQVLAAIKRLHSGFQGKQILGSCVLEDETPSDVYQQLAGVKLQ

[4] = biological target: T2, 3CLpro enzyme from the human coronavirus HKU1 (Human coronavirus HKU1, UniProt P0C6X2); assay type: biochemical; settings: 100 μM
T2 sequence (P0C6X2 3335-3637 limits assumed): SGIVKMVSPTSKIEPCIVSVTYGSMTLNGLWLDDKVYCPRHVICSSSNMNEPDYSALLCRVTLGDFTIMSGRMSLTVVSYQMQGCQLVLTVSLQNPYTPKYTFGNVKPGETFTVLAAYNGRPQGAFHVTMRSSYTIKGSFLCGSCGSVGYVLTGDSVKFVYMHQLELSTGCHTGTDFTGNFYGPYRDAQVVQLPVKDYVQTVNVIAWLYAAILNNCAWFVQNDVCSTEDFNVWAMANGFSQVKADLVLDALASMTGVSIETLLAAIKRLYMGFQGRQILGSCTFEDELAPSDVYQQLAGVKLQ

For CC(C)(C)NC(=O)[C@@H](c1cccnc1)N(C(=O)c1ccco1)c1ccc(C(C)(C)C)cc1 [16-(R), (R)-N-(4-(tert-butyl)phenyl)-N-(2-(tert-butylamino)-2-oxo-1-(pyridin-3-yl)ethyl)furan-2-carboxamide], which “activity in lead-profiling screen” value [1] is on record?
The value was less than 50%.

What about the solubility (physchem) of the same compound?
Its solubility is ≤ 95 µg/mL and ≤ 219 µM.

Which IC50 (SARS-CoV 3CLpro) does the source give for CCC(C)c1ccc(N(C(=O)c2ccco2)C(C(=O)NC2CCCC2)c2cccnc2)cc1 (stereo not shown) [Compound 14] here?
Its IC50 is less than 10000 nM.

Which inhibition at 100 µM (SARS-CoV 3CLpro) does the source give for CC(C)(C)NC(=O)C(c1cccnc1)N(C(=O)c1ccco1)c1ccc(C(C)(C)C)cc1 (stereo not shown) [Compound 16] here?
Its inhibition at 100 µM is greater than 50%.

For CC(C)c1ccc(N(C(=O)c2ccco2)C(C(=O)NC(C)(C)C)c2cccnc2)cc1 (stereo not shown) [Compound 17, N-(2-(tert-butylamino)-2-oxo-1-(pyridin-3-yl)ethyl)-N-(4-isopropylphenyl)furan-2-carboxamide], which IC50 (SARS-CoV 3CLpro; read-out: 3CLpro IC50) is on record?
The IC50 was less than 50000 nM.

And the inhibition at 100 µM (SARS-CoV 3CLpro)?
Its inhibition at 100 µM is greater than 50%.

With CC(C)(C)NC(=O)C(c1cccnc1)N(C(=O)c1ccco1)C1CC1 (stereo not shown) [Compound 18, N-(2-(tert-butylamino)-2-oxo-1-(pyridin-3-yl)ethyl)-N-cyclopropylfuran-2-carboxamide] as the compound, how does the “3CLpro inhibition, SAR result in words” value (SARS-CoV 3CLpro) read?
Its value is “deleterious for inhibition”.

With CC(C)(C)NC(=O)C(c1cccnc1)N(C(=O)c1ccco1)c1ccc(F)cc1 (stereo not shown) [Compound 19, N-(2-(tert-butylamino)-2-oxo-1-(pyridin-3-yl)ethyl)-N-(4-fluorophenyl)furan-2-carboxamide] as the compound, how does the “3CLpro inhibition, SAR result in words” value (SARS-CoV 3CLpro) read?
Its value is “deleterious for inhibition”.

Which “3CLpro inhibition, SAR result in words” value (SARS-CoV 3CLpro) does the source give for CC(C)(C)NC(=O)C(c1ccsc1)N(C(=O)c1ccco1)c1ccc(C(C)(C)C)cc1 (stereo not shown) [Compound 20, N-(4-(tert-butyl)phenyl)-N-(2-(tert-butylamino)-2-oxo-1-(thiophen-3-yl)ethyl)furan-2-carboxamide] here?
The value was “complete loss of inhibition activity”.

For Cc1ccc(C(=O)N(c2ccc(C(C)(C)C)cc2)C(C(=O)NC(C)(C)C)c2cccnc2)o1 (stereo not shown) [Compound 21], which “3CLpro inhibition, SAR result in words” value (SARS-CoV 3CLpro) is on record?
The value was “negatively impacted activity”.

Which “3CLpro inhibition, SAR result in words” value (SARS-CoV 3CLpro) does the source give for Cc1ccoc1C(=O)N(c1ccc(C(C)(C)C)cc1)C(C(=O)NC(C)(C)C)c1cccnc1 (stereo not shown) [Compound 26] here?
The value was “negatively impacted activity”.

What does the source list for CC(C)(C)NC(=O)C(c1cccnc1)N(C(=O)c1cccs1)c1ccc(C(C)(C)C)cc1 (stereo not shown) [Compound 27, N-(4-(tert-butyl)phenyl)-N-(2-(tert-butylamino)-2-oxo-1-(pyridin-3-yl)ethyl)thiophene-2-carboxamide]?
3CLpro inhibition, SAR result in words (SARS-CoV 3CLpro): weakly tolerated; fold loss of 3CLpro activity relative to furan 16 (SARS-CoV 3CLpro): 10 fold

With CC(C)(C)NC(=O)C(c1cccnc1)N(C(=O)c1c[nH]cn1)c1ccc(C(C)(C)C)cc1 (stereo not shown) [Compound 31, N-(4-(tert-butyl)phenyl)-N-(2-(tert-butylamino)-2-oxo-1-(pyridin-3-yl)ethyl)-1H-imidazole-4-carboxamide] as the compound, how does the “3CLpro inhibition, SAR result in words” value (SARS-CoV 3CLpro) read?
Its value is “nearly equipotent”.

Which results are given for CC(C)(C)NC(=O)C(c1cccnc1)N(C(=O)C1CCCO1)c1ccc(C(C)(C)C)cc1 (stereo not shown) [Compound 32]?
IC50 (SARS-CoV 3CLpro): > 50000 nM; fold loss of 3CLpro activity relative to furan 16 (SARS-CoV 3CLpro): > 10 fold

For CC(C)(C)NC(=O)C(c1cccnc1)N(C(=O)c1ccc[nH]1)c1ccc(C(C)(C)C)cc1 (stereo not shown) [Compound 37], which “3CLpro inhibition, SAR result in words” value (SARS-CoV 3CLpro) is on record?
The value was “completely inactive”.

Which “3CLpro inhibition, SAR result in words” value (SARS-CoV 3CLpro) does the source give for CC(C)(C)NC(=O)C(c1cccnc1)N(C(=O)c1ccc(Cl)o1)c1ccc(C(C)(C)C)cc1 (stereo not shown) [Compound 50] here?
The value was “nearly equipotent to 16”.

For CC(C)(C)NC(=O)C(c1cccnc1)N(C(=O)Cc1cnc[nH]1)c1ccc(C(C)(C)C)cc1 (stereo not shown) [Compound 51], which “3CLpro inhibition, SAR result in words” value (SARS-CoV 3CLpro) is on record?
The value was “deleterious for inhibition”.

For Cn1cnc(C(=O)N(c2ccc(C(C)(C)C)cc2)C(C(=O)NC(C)(C)C)c2cccnc2)c1 (stereo not shown) [Compound 52, N-(4-(tert-butyl)phenyl)-N-(2-(tert-butylamino)-2-oxo-1-(pyridin-3-yl)ethyl)-1-methyl-1H-imidazole-4-carboxamide], which “fold loss of 3CLpro activity relative to imidazole 31” value (SARS-CoV 3CLpro) is on record?
The value was greater than 10 fold.

Which “3CLpro inhibition, SAR result in words” value (SARS-CoV 3CLpro) does the source give for CC(C)(C)NC(=O)C(c1ccnnc1)N(C(=O)c1ccco1)c1ccc(C(C)(C)C)cc1 (stereo not shown) [Compound 53] here?
Its value is “well tolerated”.

With CC(C)(C)NC(=O)C(c1cnccn1)N(C(=O)c1ccco1)c1ccc(C(C)(C)C)cc1 (stereo not shown) [Compound 54] as the compound, how does the “3CLpro inhibition, SAR result in words” value (SARS-CoV 3CLpro) read?
The value was “well tolerated”.

For Cc1ccc(C(C(=O)NC(C)(C)C)N(C(=O)c2ccco2)c2ccc(C(C)(C)C)cc2)cn1 (stereo not shown) [Compound 55, N-(4-(tert-butyl)phenyl)-N-(2-(tert-butylamino)-1-(6-methylpyridin-3-yl)-2-oxoethyl)furan-2-carboxamide], which “3CLpro inhibition, SAR result in words” value (SARS-CoV 3CLpro) is on record?
Its value is “not permitted”.

Which “3CLpro inhibition, SAR result in words” value (SARS-CoV 3CLpro) does the source give for CC(C)(C)NC(=O)C(c1ccncc1)N(C(=O)c1ccco1)c1ccc(C(C)(C)C)cc1 (stereo not shown) [Compound 56] here?
Its value is “weak inhibitors”.

Which EC50 (SARS-CoV) does the source give for CC[C@H](NC(=O)[C@@H](NC(=O)OCc1ccccc1)[C@@H](C)OC(C)(C)C)C(=O)N[C@H](C=O)C[C@@H]1CCNC1=O [TG-0205221] here?
The EC50 was 600 nM.

What about the Ki (SARS 3CLpro) of the same compound?
The Ki was 52 nM.

Which results are given for CN(C)CCCSc1ccccc1NC(=O)/C=C/c1ccccc1 [cinanserin]?
reduction of viral RNA in cell culture media [2]: 3 log; inhibition of MHV 3CLpro [3]: no inhibition; inhibition of SARS-CoV 3CLpro (SARS-CoV 3CLpro; 100 μM): no inhibition; inhibition of authentic SARS-CoV 3CLpro (SARS-CoV 3CLpro; 100 μM): no inhibition; inhibition of HKU1 3CLpro [4]: no inhibition

— PMC3569073 (Journal of medicinal chemistry, 2013)
